Data: patent US8518952B2, “6 substituted 2-heterocyclylamino pyrazine compounds as CHK-1 inhibitors” (Pfizer Inc., priority 2008, dated 2013)
Read-outs that look alike come from different tables or passages of the source.

Tests used:
[1] = system: HeLa cells; experiment: Histone H3 (Ser10) phosphorylation ELISA, abrogation of camptothecin-induced G2 arrest (CHK-1 cellular assay); type: cell-based; conditions: HeLa cells, camptothecin 8 hrs, then compound with nocodozole 16 hours, read-out: EC50
Summary of the method: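 HeLa cells, or MiaPaCa-2 where marked, received camptothecin for 8 h, then compound with nocodazole for 16 h. Ser10-phosphorylated histone H3 in lysates was measured by ELISA with a biotinylated antibody, streptavidin-HRP and TMB. EC50 came from four-parameter sigmoid fits.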

[2] = target: T1, CHK1 (kinase domain) (Homo sapiens, UniProt O14757); experiment: CHK1 Ki determination, spectrophotometric coupled (pyruvate kinase/lactate dehydrogenase) assay; type: biochemical; conditions: CHK-1 kinase domain; for Ki: 150 uM ATP, 125 uM Syntide 2; for percent inhibition (where no Ki data is available): inhibitor concentration not given
T1 construct: a solution containing 1 nM of CHK1 (kinase domain)
T1 sequence (O14757 9-265 limits assumed): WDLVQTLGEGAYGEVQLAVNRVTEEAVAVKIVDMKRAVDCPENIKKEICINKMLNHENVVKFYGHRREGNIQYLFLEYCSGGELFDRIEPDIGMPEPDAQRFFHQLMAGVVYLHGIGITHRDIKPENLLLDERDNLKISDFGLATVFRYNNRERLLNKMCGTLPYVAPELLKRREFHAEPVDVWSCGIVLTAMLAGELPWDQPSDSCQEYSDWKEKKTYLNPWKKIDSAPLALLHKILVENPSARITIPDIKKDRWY
Summary of the method: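 The CHK1 kinase domain was pre-incubated with compound for 15 min, and the reaction was started with 125 uM Syntide 2 and 150 uM ATP. ADP formation was coupled through pyruvate kinase/lactate dehydrogenase to NADH oxidation, read as the A340 decrease. Kiapp was fitted with a tight-binding equation that accounts for enzyme concentration and ATP Km; some entries are % inhibition.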

Compound	EC50 ([1]; Homo sapiens, HeLa)	Ki [2]	EC50 [1]	percent inhibition (where no Ki data is available) [2]
COc1ccn2c(-c3cncc(N[C@H]4CNC[C@H]4c4ccccc4)n3)cnc2c1 [Example 152, 6-(7-methoxyimidazo[1,2-a]pyridin-3-yl)-N-[(3R,4R)-4-phenylpyrrolidin-3-yl]pyrazin-2-amine]	5.6 nM	1.47 nM	–	–
CO[C@H]1CNC[C@H](Nc2cncc(-c3cnc4ccccn34)n2)C1 [Example 156, 6-(imidazo[1,2-a]pyridin-3-yl)-N-[(3R,5R)-5-methoxypiperidin-3-yl]pyrazin-2-amine]	314 nM	28.4 nM	–	–
c1ccn2c(-c3cncc(NC4CC5CNC4C5)n3)cnc2c1 (stereo not shown) [Example 159, N-[6-(imidazo[1,2-a]pyridin-3-yl)pyrazin-2-yl]-2-azabicyclo[2.2.1]heptan-6-amine]	166 nM	20.8 nM	–	–
CC(C)c1cn2c(-c3cncc(N[C@@H]4CCCN[C@@H]4C)n3)cnc2s1 [Example 165, N-[(2R,3R)-2-methylpiperidin-3-yl]-6-[2-(propan-2-yl)imidazo[2,1-b][1,3]thiazol-5-yl]pyrazin-2-amine]	–	1.09 nM	123 nM	–
CCc1cn2c(-c3cncc(N[C@@H]4CCCN[C@@H]4C)n3)cnc2s1 [Example 166, 6-(2-ethylimidazo[2,1-b][1,3]thiazol-5-yl)-N-[(2R,3R)-2-methylpiperidin-3-yl]pyrazin-2-amine]	–	4.79 nM	123 nM	–
C[C@@H]1NCCC[C@H]1Nc1cncc(-c2cnc3cnccn23)n1 [Example 167, 6-(imidazo[1,2-a]pyrazin-3-yl)-N-[(2S,3R)-2-methylpiperidin-3-yl]pyrazin-2-amine]	≥ 10000 nM	101 nM	–	–
C[C@@H]1NCCC[C@H]1Nc1cncc(-c2cnc3ccc(F)cn23)n1 [Example 168, 6-(6-fluoroimidazo[1,2-a]pyridin-3-yl)-N-[(2S,3R)-2-methylpiperidin-3-yl]pyrazin-2-amine]	≥ 10000 nM	22.7 nM	–	–
CC(C)c1cn2c(-c3cncc(N[C@@H]4CCCN[C@H]4C)n3)cnc2s1 [Example 169, N-[(2S,3R)-2-methylpiperidin-3-yl]-6-[2-(propan-2-yl)imidazo[2,1-b][1,3]thiazol-5-yl]pyrazin-2-amine]	–	–	1850 nM	45.9%^
CCc1cn2c(-c3cncc(N[C@@H]4CCCN[C@H]4C)n3)cnc2s1 [Example 170, 6-(2-ethylimidazo[2,1-b][1,3]thiazol-5-yl)-N-[(2S,3R)-2-methylpiperidin-3-yl]pyrazin-2-amine]	–	11.1 nM	414 nM	–
C[C@H]1NCCC[C@@H]1Nc1cncc(-c2cnc3cnccn23)n1 [Example 171, 6-(imidazo[1,2-a]pyrazin-3-yl)-N-[(2R,3S)-2-methylpiperidin-3-yl]pyrazin-2-amine]	≥ 10000 nM	–	–	21.7%^
C[C@H]1NCCC[C@@H]1Nc1cncc(-c2cnc3ccc(F)cn23)n1 [Example 172, 6-(6-fluoroimidazo[1,2-a]pyridin-3-yl)-N-[(2R,3S)-2-methylpiperidin-3-yl]pyrazin-2-amine]	≥ 10000 nM	178 nM	–	–
CC(C)c1cn2c(-c3cncc(N[C@H]4CCCN[C@@H]4C)n3)cnc2s1 [Example 173, N-[(2R,3S)-2-methylpiperidin-3-yl]-6-[2-(propan-2-yl)imidazo[2,1-b][1,3]thiazol-5-yl]pyrazin-2-amine]	≥ 10000 nM	23.7 nM	–	–
CCc1cn2c(-c3cncc(N[C@H]4CCCN[C@@H]4C)n3)cnc2s1 [Example 174, 6-(2-ethylimidazo[2,1-b][1,3]thiazol-5-yl)-N-[(2R,3S)-2-methylpiperidin-3-yl]pyrazin-2-amine]	≥ 10000 nM	16.9 nM	–	–
Cc1cn2c(-c3cncc(N[C@H]4CCCN[C@H]4C)n3)cnc2s1 [Example 175, 6-(2-methylimidazo[2,1-b][1,3]thiazol-5-yl)-N-[(2S,3S)-2-methylpiperidin-3-yl]pyrazin-2-amine]	197 nM	13.7 nM	–	–

Next, values leading:

EC50 ([1]; Homo sapiens, HeLa)	Ki [2]	EC50 [1]	percent inhibition (where no Ki data is available) [2]	Compound
–	9.54 nM	11.2 nM	–	Cc1cn2c(-c3cncc(N[C@@H]4CCCN[C@H]4C)n3)cnc2s1 [Example 176, 6-(2-methylimidazo[2,1-b][1,3]thiazol-5-yl)-N-[(2S,3R)-2-methylpiperidin-3-yl]pyrazin-2-amine]
31.2 nM	2.01 nM	–	–	Cc1cn2c(-c3cncc(N[C@H]4CN[C@H](C)C4)n3)cnc2s1 [Example 178, 6-(2-methylimidazo[2,1-b][1,3]thiazol-5-yl)-N-[(3R,5R)-5-methylpyrrolidin-3-yl]pyrazin-2-amine]
294 nM	–	–	29.1%^	C[C@@H]1NCCC[C@@H]1Nc1cncc(-c2cnc3sccn23)n1 [Example 179, 6-(imidazo[2,1-b][1,3]thiazol-5-yl)-N-[(2S,3S)-2-methylpiperidin-3-yl]pyrazin-2-amine]
≥ 10000 nM	1.5 nM	–	–	C[C@H]1NCCC[C@H]1Nc1cncc(-c2cnc3sccn23)n1 [Example 180, 6-(imidazo[2,1-b][1,3]thiazol-5-yl)-N-[(2R,3R)-2-methylpiperidin-3-yl]pyrazin-2-amine]
53 nM	5.4 nM	–	–	Cc1cn2c(-c3cncc(N[C@H]4CNC[C@H]4CF)n3)cnc2s1 [Example 183, N-[(3R,4R)-4-(fluoromethyl)pyrrolidin-3-yl]-6-(2-methylimidazo[2,1-b][1,3]thiazol-5-yl)pyrazin-2-amine]
66.4 nM	–	–	109%^	CC(C)c1cn2c(-c3cncc(N[C@H]4CNC[C@H]4CF)n3)cnc2s1 [Example 184, N-[(3R,4R)-4-(fluoromethyl)pyrrolidin-3-yl]-6-[2-(propan-2-yl)imidazo[2,1-b][1,3]thiazol-5-yl]pyrazin-2-amine]
66.4 nM	5.4 nM	–	–	CCc1cn2c(-c3cncc(N[C@H]4CNC[C@H]4CF)n3)cnc2s1 [Example 185, 6-(2-ethylimidazo[2,1-b][1,3]thiazol-5-yl)-N-[(3R,4R)-4-(fluoromethyl)pyrrolidin-3-yl]pyrazin-2-amine]
664 nM	24 nM	–	–	N#Cc1ccn2c(-c3cncc(N[C@@H]4CCNC4)n3)cnc2c1 [Example 186, 3-{6-[(3R)-pyrrolidin-3-ylamino]pyrazin-2-yl}imidazo[1,2-a]pyridine-7-carbonitrile]
1320 nM	156 nM	–	–	CO[C@@H]1CNC[C@@H]1Nc1cncc(-c2cnc3ccccn23)n1 [Example 190, 6-(imidazo[1,2-a]pyridin-3-yl)-N-[(3S,4R)-4-methoxypyrrolidin-3-yl]pyrazin-2-amine]
5070 nM	4.7 nM	–	–	C[C@@H]1CNC[C@@H]1Nc1cncc(-c2cnc3cc(C(N)=O)ccn23)n1 [Example 191, 3-(6-{[(3R,4R)-4-methylpyrrolidin-3-yl]amino}pyrazin-2-yl)imidazo[1,2-a]pyridine-7-carboxamide]
102 nM	26.5 nM	–	–	CCOC[C@@H]1C[C@@H](Nc2cncc(-c3cnc4ccccn34)n2)CN1 [Example 193, N-[(3R,5S)-5-(ethoxymethyl)pyrrolidin-3-yl]-6-(imidazo[1,2-a]pyridin-3-yl)pyrazin-2-amine]
7.76 nM	13.6 nM	–	–	CC(C)[C@@H]1CNC[C@@H]1Nc1cncc(-c2cnc3ccccn23)n1 [Example 194, 6-(imidazo[1,2-a]pyridin-3-yl)-N-[(3R,4R)-4-(propan-2-yl)pyrrolidin-3-yl]pyrazin-2-amine]
78.5 nM	73.4 nM	–	–	FC(F)(F)CO[C@@H]1CNC[C@@H]1Nc1cncc(-c2cnc3ccccn23)n1 [Example 195, 6-(imidazo[1,2-a]pyridin-3-yl)-N-[(3S,4R)-4-(2,2,2-trifluoroethoxy)pyrrolidin-3-yl]pyrazin-2-amine]
16.8 nM	32 nM	–	–	CC[C@@H]1CNC[C@@H]1Nc1cncc(-c2cnc3ccccn23)n1 [Example 196, N-[(3R,4R)-4-ethylpyrrolidin-3-yl]-6-(imidazo[1,2-a]pyridin-3-yl)pyrazin-2-amine]
23.4 nM	1.09 nM	–	–	Fc1ccc2c(-c3cncc(N[C@@H]4CCCNC4)n3)cnn2c1 [Example 198, 6-(6-fluoropyrazolo[1,5-a]pyridin-3-yl)-N-[(3R)-piperidin-3-yl]pyrazin-2-amine]
48.9 nM	4.88 nM	–	–	OC[C@@H]1CNC[C@@H]1Nc1cncc(-c2cnn3cc(Cl)ccc23)n1 [Example 201, [(3R,4R)-4-{[6-(6-chloropyrazolo[1,5-a]pyridin-3-yl)pyrazin-2-yl]amino}pyrrolidin-3-yl]methanol]
19.4 nM	18.4 nM	–	–	C[C@@H]1CNC[C@@H]1Nc1cncc(-c2cnn3cc(F)ccc23)n1 [Example 202, 6-(6-fluoropyrazolo[1,5-a]pyridin-3-yl)-N-[(3R,4R)-4-methylpyrrolidin-3-yl]pyrazin-2-amine]
123 nM	1.3 nM	–	–	C[C@@H]1CNC[C@@H]1Nc1cncc(-c2cnc3cc(-c4cnn(C)c4)ccn23)n1 [Example 209, 6-[7-(1-methyl-1H-pyrazol-4-yl)imidazo[1,2-a]pyridin-3-yl]-N-[(3R,4R)-4-methylpyrrolidin-3-yl]pyrazin-2-amine]
